One block for each molecule: values may come before it.
Tests used:
[1] = target: MBP-tagged Class III PPK2 enzyme from Pedobacter sp. (PED), full-length (Pedobacter sp.); experiment: AUC
[2] = target: T1, CHU (Cytophaga hutchinsonii, UniProt A0A6N4SMB5); experiment: HPLC product distribution, end point […] min; assay type: biochemical; conditions: 4 mM nucleotide, PolyP-60 65 mM phosphate units, 10 mM Mn2+, 50 mM MOPS-NaOH pH 7.0, 37 °C
T1 sequence (A0A6N4SMB5 1-305): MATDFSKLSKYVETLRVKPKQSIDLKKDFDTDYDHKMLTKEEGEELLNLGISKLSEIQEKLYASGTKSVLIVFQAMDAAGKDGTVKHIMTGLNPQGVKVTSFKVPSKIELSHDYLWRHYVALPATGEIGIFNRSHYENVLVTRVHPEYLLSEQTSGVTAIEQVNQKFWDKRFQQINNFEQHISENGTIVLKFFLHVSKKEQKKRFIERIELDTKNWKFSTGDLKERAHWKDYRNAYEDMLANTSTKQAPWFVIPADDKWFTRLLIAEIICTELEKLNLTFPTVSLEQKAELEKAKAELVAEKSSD

[3] = target: T2, ARE (Algibacter luteus, UniProt A0A1M6FUJ9); experiment: HPLC product distribution, end point […] min; assay type: biochemical; conditions: 4 mM nucleotide, PolyP 65 mM phosphate units, 10 mM Mn2+, 50 mM MOPS-NaOH pH 7.0, 37 °C
T2 sequence (A0A1M6FUJ9 1-283): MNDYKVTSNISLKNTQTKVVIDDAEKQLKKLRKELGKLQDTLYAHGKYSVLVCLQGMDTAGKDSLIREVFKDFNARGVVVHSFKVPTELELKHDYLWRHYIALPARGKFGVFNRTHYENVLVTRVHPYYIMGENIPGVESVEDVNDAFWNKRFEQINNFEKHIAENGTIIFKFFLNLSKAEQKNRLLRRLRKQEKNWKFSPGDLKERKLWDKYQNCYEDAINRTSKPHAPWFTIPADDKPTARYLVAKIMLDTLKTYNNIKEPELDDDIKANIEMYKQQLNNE

[4] = target: the molecule itself; experiment: AUC

stoichiometry N [1]: 2
Molecule: MBP-tagged Class III PPK2 enzyme from Pedobacter sp. (PED), full-length

Molecule: Nc1ncnc2c1ncn2[C@@H]1O[C@H](COP(=O)(O)O)[C@@H](O)[C@H]1O [AMP]
product distribution [2]: Product distribution of MAN and CHU under the same conditions

Molecule: Nc1nc2c(ncn2[C@@H]2O[C@H](COP(=O)(O)O)[C@@H](O)[C@H]2O)c(=O)[nH]1 [GMP]
Percent conversion to NTP [3]: PED and ARE exhibit weak activity against CMP, GDP, and GMP | product distribution [2]: CHU produces significant amounts of GPn (guanine nucleotides with four or more phosphate groups)

B1: MBP-tagged Class III PPK2 enzyme from Cytophaga hutchinsonii (CHU), full-length (enzyme, UniProt A0A6N4SMB5 1-305, looked up)
chain: MATDFSKLSKYVETLRVKPKQSIDLKKDFDTDYDHKMLTKEEGEELLNLGISKLSEIQEKLYASGTKSVLIVFQAMDAAGKDGTVKHIMTGLNPQGVKVTSFKVPSKIELSHDYLWRHYVALPATGEIGIFNRSHYENVLVTRVHPEYLLSEQTSGVTAIEQVNQKFWDKRFQQINNFEQHISENGTIVLKFFLHVSKKEQKKRFIERIELDTKNWKFSTGDLKERAHWKDYRNAYEDMLANTSTKQAPWFVIPADDKWFTRLLIAEIICTELEKLNLTFPTVSLEQKAELEKAKAELVAEKSSD
stoichiometry N [4]: 2

Source: PMC12864786 (Nature Communications, 2026)
